How the values were obtained:
Rat plasma stability = type: in vitro ADME; conditions: over 4 h, 50 μM, 37 °C
Protocol: Two- to three-month-old healthy male Wistar rats (with an average weight of 385 g) were obtained from the Graduation Program in Pharmacology and Medicinal Chemistry Bioterium (CCS/UFRJ) (Rio de Janeiro, Brazil). The rats were fed ad libitum with Purina chow (Nuvilab, Curitiba, Brazil) and had unrestricted access to water. They were housed in a controlled environment maintained at 22 ± 2 °C, 50–70% relative humidity and a 12 h light/dark cycle. The local Animal Ethics Committee approved all experimental procedures (046/21).
A 10 mM stock solution of bixin was prepared in DMSO. Rat blood was collected with heparin and centrifuged. The plasma fraction was separated and diluted to 80% in PBS at pH 7.4. Then, 50 μL of the 80% rat plasma solution was added to a final volume of 250 μL of a KPE at pH 7.4 containing 50 μM of bixin. The bixin was incubated with rat plasma under these conditions for 0, 30, 60, 120, and 240 min with shaking in a water bath at 37 °C. […] The supernatant was collected, filtered through a 0.22 μm filter into a vial, and then analyzed by HPLC using an LC-20AD Shimadzu (Kyoto, Japan) system equipped with a 100-5C18 Kromasil (Bohus, Sweden) analytical column (4.6 mm × 250 mm, 5 μm) and an SPD M20A diode array detector Shimadzu (Kyoto, Japan) set to wavelengths of 271 nm and 457 nm. […]

[1] = Rat liver microsomal stability in the absence of cofactors (NADPH generating system); type: in vitro ADME; conditions: rat liver microsomes without NADPH cofactors, 4 h, 50 μM, 37 °C
Protocol: A final solution of microsomes (1 mg/mL protein) in 250 μL of PBS at pH 7.4 containing 50 μM of bixin was prepared in the absence of an NADPH-regenerating metabolic cofactor system. The bixin was incubated with rat microsomes under these conditions for 0, 30, 60, 120, and 240 min with shaking in a water bath at 37 °C. The subsequent steps for protein precipitation, bixin extraction, and HPLC analysis were identical to those described for the rat plasma stability assay.

[2] = PAMPA-GIT permeability assay; type: in vitro ADME
Source text: The parallel artificial membrane permeability assay (PAMPA) utilizes a 96-well plate system in a “sandwich” format, where one plate is positioned above another (PAMPA). The upper plate, known as the donor compartment, contains the compounds (test or control) dissolved in a buffered solution. […] The lipid composition of the PVDF filter varies depending on the type of permeability test. For gastrointestinal tract (GIT) permeability assessments, L-α-soy phosphatidylcholine in dodecane is used. Optical density values are measured at specified wavelengths for each compound and compared against controls. For GIT permeability, the absorbed fraction (Fa%) and permeability (Pe) are determined. […] Compounds for these assays were diluted from a 10 mM stock solution. These assays were conducted using a 1 mg/mL stock solution per compound.

[3] = tested on: p-p65 NF-κB in RAW 264.7 cells; assay: Immunocytochemistry for p-p65 nuclear translocation; type: cell-based; conditions: for nuclear p-p65 (green fluorescence colocalized with DAPI), compound alone: 200 μM, no stimulus; for p-p65 NF-κB nuclear translocation in cells stimulated with CSE: 5% CSE then compound 200 μM
Protocol: RAW 264.7 cells were seeded in a 24-well plate (2.5 × 10^5 cells/well) and stimulated as previously described. After reaching 70% confluence, cells were blocked with 5% (w/v) BSA for 1 h, then washed three times in PBS-Tween 20 (0.1% (v/v)). The supernatants were replaced with a solution containing the primary antibody against p-p65 (#3033-rabbit-1:500) (Cell Signaling Technology, Danvers, MA, USA) diluted in PBS-T with 1% (w/v) BSA and incubated overnight. After incubation, cells were incubated for 1 h with a secondary antibody conjugated to Alexa Fluor-488 (1:1000; ThermoFisher Scientific, Waltham, MA, USA). Cells were then washed three times with PBS-T and incubated with DAPI for 5 min. After the final wash, DMEM FluoroBrite was added, and fluorescence was analyzed using the EVOS inverted microscope (ThermoFisher Scientific, Waltham, MA, USA). Images were captured at 20× magnification from at least 10 fields for each experimental condition, and fluorescence intensity was quantified.

Nrf2/ARE axis = assay: Luciferase ARE reporter assay; type: cell-based; conditions: RAW 264.7 transfected with ARE luciferase reporter, 0–200 μM; read-out: EC50 in activating the Nrf2/ARE axis
Protocol: RAW 264.7 cells (3.5 × 10^5 cells/well) were seeded into 24-well plates in FBS-free DMEM. Next day, cells were transfected with the ARE-responsive luciferase reporter kit (#60514, BPS Bioscience, San Diego, CA, USA) in Opti-MEM containing Lipofectamine 2000 and incubated for 24 h. After stimulation with different concentrations of potassium bixinate (0–200 μM), the luciferase-containing medium was collected and incubated with luciferin substrate (Dual Luciferase Assay System) (#60683-1, BPS Bioscience, San Diego, CA, USA) according to the manufacturer’s instructions. Luminescence emitted by luciferin cleavage was measured using the Varioskan LUX plate reader (ThermoFisher Scientific, Waltham, MA, USA).

COC(=O)/C=C/C(C)=C\C=C\C(C)=C\C=C\C=C(C)\C=C\C=C(C)\C=C\C(=O)O [HBx, (2E,4E,6E,8E,10E,12E,14E,16Z,18E)-20-methoxy-4,8,13,17-tetramethyl-20-oxoicosa-2,4,6,8,10,12,14,16,18-nonaenoic acid]
initial concentration retained in plasma (Rat plasma stability): ~100%
initial concentration maintained in microsomes [1]: ~100%
Papp ([2]; L-α-soy phosphatidylcholine in dodecane, read-out: Experimental Pe): 0.36 ×10⁻⁶ cm/s
Experimental Fa ([2]; absorbed fraction): 12.79%
nuclear p-p65 (green fluorescence colocalized with DAPI), compound alone [3]: do not display a significant increase in green fluorescence intensity
p-p65 NF-κB nuclear translocation in cells stimulated with CSE [3]: prevent p-p65 NF-κB nuclear translocation

potassium bixinate [KBx]
nuclear p-p65 (green fluorescence colocalized with DAPI), compound alone [3]: do not display a significant increase in green fluorescence intensity
p-p65 NF-κB nuclear translocation in cells stimulated with CSE [3]: prevent p-p65 NF-κB nuclear translocation
EC50 (Nrf2/ARE axis): 46 µM

Source: publication PMC12030059, “Mechanistic Advances in the Therapeutic Application of Bixin for Lung Inflammation In Vitro and In Vivo” (Pharmaceuticals, 2025)
